These are literature values, as cited in patent US20250263624A1, “Environmentally friendly metal cutting oil with high load-bearing and high anti-wear properties” (Shenyang Peite Technology Co., Ltd, priority 2025, published 2025).

On to `CC(C)CCCCCOC(=O)CCCCCCCCC(=O)OCCCCCC(C)C` [diisooctyl sebacate], for which the Water solubility entry is “Insoluble”.
